Reference: PubChem BioAssay (NCI)
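Assay format: 96-well plates, 48-hour exposure. Abbreviation: GI50, concentration required for 50% inhibition of growth. TGI marks complete inhibition of growth.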

Legend:
Test in all cases: NCI tumour cell line growth inhibition, 48 h
SK-MEL-2 melanoma = test system: SK-MEL-2 melanoma
NCI/ADR-RES ovarian = test system: NCI/ADR-RES ovarian
CAKI-1 renal = test system: CAKI-1 renal
SNB-19 CNS = test system: SNB-19 CNS
COLO 205 colon = test system: COLO 205 colon
SK-OV-3 ovarian = test system: SK-OV-3 ovarian
M14 melanoma = test system: M14 melanoma
SF-268 CNS = test system: SF-268 CNS
MDA-MB-231 breast = test system: MDA-MB-231 breast
RPMI-8226 leukemia = test system: RPMI-8226 leukemia
HT29 colon = test system: HT29 colon
OVCAR-8 ovarian = test system: OVCAR-8 ovarian
TK-10 renal = test system: TK-10 renal
NCI-H23 lung = test system: NCI-H23 lung
PC-3 prostate = test system: PC-3 prostate
SK-MEL-5 melanoma = test system: SK-MEL-5 melanoma
SNB-75 CNS = test system: SNB-75 CNS
786-0 renal = test system: 786-0 renal
CCRF-CEM leukemia = test system: CCRF-CEM leukemia
U251 CNS = test system: U251 CNS
UACC-257 melanoma = test system: UACC-257 melanoma
SW-620 colon = test system: SW-620 colon
MOLT-4 leukemia = test system: MOLT-4 leukemia
MDA-MB-435 = test system: MDA-MB-435
HL-60(TB) leukemia = test system: HL-60(TB) leukemia
HS 578T breast = test system: HS 578T breast
NCI-H226 lung = test system: NCI-H226 lung
HOP-92 NSCLC = test system: HOP-92 NSCLC
K-562 leukemia = test system: K-562 leukemia
T-47D breast = test system: T-47D breast
UO-31 renal = test system: UO-31 renal
LOX IMVI melanoma = test system: LOX IMVI melanoma
NCI-H522 lung = test system: NCI-H522 lung
HCT-116 colon = test system: HCT-116 colon
OVCAR-5 ovarian = test system: OVCAR-5 ovarian
HCC-2998 colon = test system: HCC-2998 colon
HCT-15 colon = test system: HCT-15 colon
BT-549 breast = test system: BT-549 breast
SF-295 CNS = test system: SF-295 CNS
OVCAR-3 ovarian = test system: OVCAR-3 ovarian
DU-145 prostate = test system: DU-145 prostate
NCI-H460 lung = test system: NCI-H460 lung
SK-MEL-28 melanoma = test system: SK-MEL-28 melanoma
ACHN renal = test system: ACHN renal
SF-539 CNS = test system: SF-539 CNS
RXF 393 renal = test system: RXF 393 renal
KM12 colon = test system: KM12 colon
A498 renal = test system: A498 renal
HOP-62 NSCLC = test system: HOP-62 NSCLC
MALME-3M melanoma = test system: MALME-3M melanoma
MCF7 breast = test system: MCF7 breast
IGROV1 ovarian = test system: IGROV1 ovarian
UACC-62 melanoma = test system: UACC-62 melanoma
SN12C renal = test system: SN12C renal
A549 NSCLC = test system: A549 NSCLC
OVCAR-4 ovarian = test system: OVCAR-4 ovarian

Compound: CCN(Cc1ccccc1F)c1ccc(CO)c(Cl)c1
- GI50 (SK-MEL-2 melanoma): 1.81 µM
- TGI (SK-MEL-2 melanoma): 19.9 µM
- GI50 (NCI/ADR-RES ovarian): 15.9 µM
- TGI (NCI/ADR-RES ovarian): 52.8 µM
- GI50 (CAKI-1 renal): 3.81 µM
- TGI (CAKI-1 renal): 39.9 µM
- GI50 (SNB-19 CNS): 28.4 µM
- TGI (SNB-19 CNS): > 94.6 µM
- GI50 (COLO 205 colon): 2.45 µM
- TGI (COLO 205 colon): 7.86 µM
- GI50 (SK-OV-3 ovarian): 4.28 µM
- TGI (SK-OV-3 ovarian): 17.9 µM
- GI50 (M14 melanoma): 19.9 µM
- TGI (M14 melanoma): 41.7 µM
- GI50 (SF-268 CNS): 26.6 µM
- TGI (SF-268 CNS): > 60.7 µM
- GI50 (MDA-MB-231 breast): 16.3 µM
- TGI (MDA-MB-231 breast): 41.7 µM
- GI50 (RPMI-8226 leukemia): 0.796 µM
- TGI (RPMI-8226 leukemia): 22.8 µM
- GI50 (HT29 colon): 3.38 µM
- TGI (HT29 colon): 21.4 µM
- GI50 (OVCAR-8 ovarian): 13.2 µM
- TGI (OVCAR-8 ovarian): > 57 µM
- GI50 (TK-10 renal): < 0.0201 µM
- TGI (TK-10 renal): 0.0651 µM
- GI50 (NCI-H23 lung): 14.6 µM
- TGI (NCI-H23 lung): 57.1 µM
- GI50 (PC-3 prostate): 18.9 µM
- TGI (PC-3 prostate): > 62.8 µM
- GI50 (SK-MEL-5 melanoma): 2.66 µM
- TGI (SK-MEL-5 melanoma): 21.1 µM
- GI50 (SNB-75 CNS): 11 µM
- TGI (SNB-75 CNS): 46.4 µM
- GI50 (786-0 renal): 15.9 µM
- TGI (786-0 renal): 41 µM
- GI50 (CCRF-CEM leukemia): 24.2 µM
- TGI (CCRF-CEM leukemia): > 75.4 µM
- GI50 (U251 CNS): 0.256 µM
- TGI (U251 CNS): 24.2 µM
- GI50 (UACC-257 melanoma): < 0.0346 µM
- TGI (UACC-257 melanoma): 0.134 µM
- GI50 (SW-620 colon): 0.49 µM
- TGI (SW-620 colon): > 46.5 µM
- GI50 (MOLT-4 leukemia): 22.5 µM
- TGI (MOLT-4 leukemia): 56.2 µM
- GI50 (MDA-MB-435): 17.2 µM
- TGI (MDA-MB-435): 40.2 µM
- GI50 (HL-60(TB) leukemia): 17.7 µM
- TGI (HL-60(TB) leukemia): 47.3 µM
- GI50 (HS 578T breast): 26.5 µM
- TGI (HS 578T breast): > 66.4 µM
- GI50 (NCI-H226 lung): 0.0137 µM
- TGI (NCI-H226 lung): 0.0511 µM
- GI50 (HOP-92 NSCLC): 0.301 µM
- TGI (HOP-92 NSCLC): 8.72 µM
- GI50 (K-562 leukemia): 0.535 µM
- TGI (K-562 leukemia): > 39 µM
- GI50 (T-47D breast): < 0.0213 µM
- TGI (T-47D breast): 0.177 µM
- GI50 (UO-31 renal): 13.2 µM
- TGI (UO-31 renal): 46.4 µM
- GI50 (LOX IMVI melanoma): 20.3 µM
- TGI (LOX IMVI melanoma): 44.2 µM
- GI50 (NCI-H522 lung): 16.3 µM
- TGI (NCI-H522 lung): 39.1 µM
- GI50 (HCT-116 colon): < 0.0273 µM
- TGI (HCT-116 colon): 11.3 µM
- GI50 (OVCAR-5 ovarian): 0.0428 µM
- TGI (OVCAR-5 ovarian): 0.234 µM
- GI50 (HCC-2998 colon): 8.41 µM
- TGI (HCC-2998 colon): 25 µM
- GI50 (HCT-15 colon): 11.5 µM
- TGI (HCT-15 colon): 47.2 µM
- GI50 (BT-549 breast): 15.8 µM
- TGI (BT-549 breast): 30.6 µM
- GI50 (SF-295 CNS): 0.7 µM
- TGI (SF-295 CNS): 17.2 µM
- GI50 (OVCAR-3 ovarian): 0.176 µM
- TGI (OVCAR-3 ovarian): 1.5 µM
- GI50 (DU-145 prostate): 18.4 µM
- TGI (DU-145 prostate): > 60 µM
- GI50 (NCI-H460 lung): 0.0604 µM
- TGI (NCI-H460 lung): 11 µM
- GI50 (SK-MEL-28 melanoma): 13.5 µM
- TGI (SK-MEL-28 melanoma): 31.3 µM
- GI50 (ACHN renal): 19.2 µM
- TGI (ACHN renal): > 53.4 µM
- GI50 (SF-539 CNS): 16.8 µM
- TGI (SF-539 CNS): 34.5 µM
- GI50 (RXF 393 renal): 4.35 µM
- TGI (RXF 393 renal): 24.8 µM
- GI50 (KM12 colon): 18.5 µM
- TGI (KM12 colon): 47.7 µM
- GI50 (A498 renal): < 0.0179 µM
- TGI (A498 renal): 0.0594 µM
- GI50 (HOP-62 NSCLC): 1.34 µM
- TGI (HOP-62 NSCLC): 17.8 µM
- GI50 (MALME-3M melanoma): 17.7 µM
- TGI (MALME-3M melanoma): 39.5 µM
- GI50 (MCF7 breast): 0.0892 µM
- TGI (MCF7 breast): 12.7 µM
- GI50 (IGROV1 ovarian): < 0.0231 µM
- GI50 (UACC-62 melanoma): 0.0409 µM
- TGI (UACC-62 melanoma): 0.992 µM
- GI50 (SN12C renal): 13.5 µM
- TGI (SN12C renal): 38.6 µM
- GI50 (A549 NSCLC): 1.03 µM
- TGI (A549 NSCLC): 21.8 µM
- GI50 (OVCAR-4 ovarian): 0.0793 µM
- TGI (OVCAR-4 ovarian): 5.88 µM
